According to ChEMBL document CHEMBL3745645, “Synthesis, in vitro antitumor activity, dihydrofolate reductase inhibition, DNA intercalation and structure-activity relationship studies of 1,3,5-triazine analogues” (Bioorg Med Chem Lett, 2016):
Calls of active or inactive are those of the source. The calls are words filed in the database; no cut-off is given here.

Legend:
Format in all cases: functional
[1] = Cytotoxicity against human SF268 cells at 10 uM after 48 hrs by SRB assay; settings: SF-268, 48 h, read-out: GI
[2] = Cytotoxicity against human RXF393 cells at 10 uM after 48 hrs by SRB assay; settings: RXF 393, 48 h, read-out: GI
[3] = Cytotoxicity against human BT549 cells at 10 uM after 48 hrs by SRB assay; settings: BT-549, 48 h, read-out: GI
[4] = tested on: MDA-MB-435; assay: Cytotoxicity against human MDA-MB-435 cells at 10 uM after 48 hrs by SRB assay; settings: MDA-MB-435, 48 h, read-out: GI
[5] = tested on: MCF7; assay: Cytotoxicity against human MCF7 cells at 10 uM after 48 hrs by SRB assay; settings: MCF7, 48 h, read-out: GI
[6] = Cytotoxicity against human OVCAR3 cells at 10 uM after 48 hrs by SRB assay; settings: OVCAR-3, 48 h, read-out: GI
[7] = tested on: U-251; assay: Cytotoxicity against human U251 cells at 10 uM after 48 hrs by SRB assay; settings: U-251, 48 h, read-out: GI
[8] = Cytotoxicity against human RPMI8226 cells at 10 uM after 48 hrs by SRB assay; settings: RPMI-8226, 48 h, read-out: GI
[9] = Cytotoxicity against human OVCAR8 cells at 10 uM after 48 hrs by SRB assay; settings: OVCAR-8, 48 h, read-out: GI
[10] = tested on: 786-0; assay: Cytotoxicity against human 786-0 cells at 10 uM after 48 hrs by SRB assay; settings: 786-0, 48 h, read-out: GI
[11] = tested on: SK-MEL-5; assay: Cytotoxicity against human SK-MEL-5 cells at 10 uM after 48 hrs by SRB assay; settings: SK-MEL-5, 48 h, read-out: GI
[12] = tested on: SR; assay: Cytotoxicity against human SR cells at 10 uM after 48 hrs by SRB assay; settings: read-out: GI
[13] = tested on: NCI-H460; assay: Cytotoxicity against human NCI-H460 cells at 10 uM after 48 hrs by SRB assay; settings: NCI-H460, 48 h, read-out: GI
[14] = tested on: DU-145; assay: Cytotoxicity against human DU145 cells at 10 uM after 48 hrs by SRB assay
[15] = tested on: NCI-H226; assay: Cytotoxicity against human NCI-H226 cells at 10 uM after 48 hrs by SRB assay; settings: NCI-H226, 48 h, read-out: GI
[16] = Cytotoxicity against human SF295 cells at 10 uM after 48 hrs by SRB assay; settings: SF-295, 48 h, read-out: GI
[17] = Cytotoxicity against human HOP92 cells at 10 uM after 48 hrs by SRB assay; settings: HOP-92, 48 h, read-out: GI
[18] = tested on: NCI-H23; assay: Cytotoxicity against human NCI-H23 cells at 10 uM after 48 hrs by SRB assay; settings: NCI-H23, 48 h, read-out: GI
[19] = tested on: Malme-3M; assay: Cytotoxicity against human MALME-3M cells at 10 uM after 48 hrs by SRB assay
[20] = tested on: M14; assay: Cytotoxicity against human M14 cells at 10 uM after 48 hrs by SRB assay; settings: M14, 48 h, read-out: GI
[21] = Cytotoxicity against human TK10 cells at 10 uM after 48 hrs by SRB assay; settings: TK-10, 48 h, read-out: GI
[22] = Cytotoxicity against human SNB19 cells at 10 uM after 48 hrs by SRB assay; settings: SNB-19, 48 h, read-out: GI
[23] = tested on: SK-MEL-28; assay: Cytotoxicity against human SK-MEL-28 cells at 10 uM after 48 hrs by SRB assay; settings: SK-MEL-28, 48 h, read-out: GI
[24] = Cytotoxicity against human SF539 cells at 10 uM after 48 hrs by SRB assay; settings: SF-539, 48 h, read-out: GI
[25] = Cytotoxicity against human SW620 cells at 10 uM after 48 hrs by SRB assay; settings: SW-620, 48 h, read-out: GI
[26] = Cytotoxicity against human SKOV3 cells at 10 uM after 48 hrs by SRB assay; settings: SK-OV-3, 48 h, read-out: GI
[27] = tested on: UACC-257; assay: Cytotoxicity against human UACC257 cells at 10 uM after 48 hrs by SRB assay
[28] = Cytotoxicity against human UO31 cells at 10 uM after 48 hrs by SRB assay; settings: UO-31, 48 h, read-out: GI
[29] = tested on: LOX IMVI; assay: Cytotoxicity against human LOXIMVI cells at 10 uM after 48 hrs by SRB assay
[30] = tested on: HOP-62; assay: Cytotoxicity against human HOP62 cells at 10 uM after 48 hrs by SRB assay
[31] = tested on: MDA-MB-468; assay: Cytotoxicity against human MDA-MB-468 cells at 10 uM after 48 hrs by SRB assay; settings: MDA-MB-468, 48 h, read-out: GI
[32] = Cytotoxicity against human MOLT4 cells at 10 uM after 48 hrs by SRB assay; settings: MOLT-4, 48 h, read-out: GI
[33] = tested on: A498; assay: Cytotoxicity against human A498 cells at 10 uM after 48 hrs by SRB assay; settings: A498, 48 h, read-out: GI
[34] = tested on: K562; assay: Cytotoxicity against human K562 cells at 10 uM after 48 hrs by SRB assay; settings: K562, 48 h, read-out: GI
[35] = tested on: KM12; assay: Cytotoxicity against human KM12 cells at 10 uM after 48 hrs by SRB assay; settings: KM12, 48 h, read-out: GI
[36] = Cytotoxicity against human HCT116 cells at 10 uM after 48 hrs by SRB assay; settings: HCT-116, 48 h, read-out: GI
[37] = Cytotoxicity against human UACC62 cells at 10 uM after 48 hrs by SRB assay; settings: UACC-62, 48 h, read-out: GI
[38] = Cytotoxicity against human HCT15 cells at 10 uM after 48 hrs by SRB assay; settings: HCT-15, 48 h, read-out: GI
[39] = Cytotoxicity against human Caki1 cells at 10 uM after 48 hrs by SRB assay; settings: CAKI-1, 48 h, read-out: GI
[40] = Cytotoxicity against human COLO205 cells at 10 uM after 48 hrs by SRB assay; settings: COLO 205, 48 h, read-out: GI
[41] = tested on: SN12C; assay: Cytotoxicity against human SN12C cells at 10 uM after 48 hrs by SRB assay; settings: read-out: GI
[42] = tested on: A549; assay: Cytotoxicity against human A549 cells at 10 uM after 48 hrs by SRB assay; settings: A549, 48 h, read-out: GI
[43] = tested on: NCI-H322M; assay: Cytotoxicity against human NCI-H322M cells at 10 uM after 48 hrs by SRB assay
[44] = tested on: MDA-MB-231; assay: Cytotoxicity against human MDA-MB-231 cells at 10 uM after 48 hrs by SRB assay
[45] = Cytotoxicity against human PC3 cells at 10 uM after 48 hrs by SRB assay; settings: PC-3, 48 h, read-out: GI
[46] = tested on: OVCAR-5; assay: Cytotoxicity against human OVCAR5 cells at 10 uM after 48 hrs by SRB assay
[47] = tested on: T47D; assay: Cytotoxicity against human T47D cells at 10 uM after 48 hrs by SRB assay; settings: read-out: GI
[48] = tested on: NCI-H522; assay: Cytotoxicity against human NCI-H522 cells at 10 uM after 48 hrs by SRB assay; settings: NCI-H522, 48 h, read-out: GI
[49] = tested on: OVCAR-4; assay: Cytotoxicity against human OVCAR4 cells at 10 uM after 48 hrs by SRB assay
[50] = tested on: HCC 2998; assay: Cytotoxicity against human HCC2998 cells at 10 uM after 48 hrs by SRB assay
[51] = tested on: CCRF-CEM; assay: Cytotoxicity against human CCRF-CEM cells at 10 uM after 48 hrs by SRB assay; settings: read-out: GI
[52] = tested on: ACHN; assay: Cytotoxicity against human ACHN cells at 10 uM after 48 hrs by SRB assay; settings: read-out: GI
[53] = tested on: HT-29; assay: Cytotoxicity against human HT-29 cells at 10 uM after 48 hrs by SRB assay; settings: HT-29, 48 h, read-out: GI
[54] = Cytotoxicity against human SNB75 cells at 10 uM after 48 hrs by SRB assay; settings: SNB-75, 48 h, read-out: GI
[55] = Cytotoxicity against human Hs 578T cells at 10 uM after 48 hrs by SRB assay; settings: read-out: GI

SMILES: Cc1nc2ccc(Nc3nc(Nc4ccc(F)cc4)nc(N4CCCCC4)n3)cc2n1Cc1ccccc1
- inhibition of growth at 10 µM [1]: 4.31%
- inhibition of growth at 10 µM [2]: 13.8%
- inhibition of growth at 10 µM [3]: 5.37%
- inhibition of growth at 10 µM [4]: 3.66%
- inhibition of growth at 10 µM [5]: 38.8%
- inhibition of growth at 10 µM [6]: 0.84%
- inhibition of growth at 10 µM [7]: 21.5%
- inhibition of growth at 10 µM [8]: 25.2%
- inhibition of growth at 10 µM [9]: 6.9%
- inhibition of growth at 10 µM [10]: 11.8%
- inhibition of growth at 10 µM [11]: 22.9%
- inhibition of growth at 10 µM [12]: 50.7%
- inhibition of growth at 10 µM [13]: 17.7%
- growth inhibition (GI) [14]: inactive
- inhibition of growth at 10 µM [15]: 12.3%
- inhibition of growth at 10 µM [16]: 9.64%
- inhibition of growth at 10 µM [17]: 24.7%
- inhibition of growth at 10 µM [18]: 5.43%
- growth inhibition (GI) [19]: inactive
- inhibition of growth at 10 µM [20]: 7.86%
- inhibition of growth at 10 µM [21]: 7.88%
- inhibition of growth at 10 µM [22]: 17.5%
- inhibition of growth at 10 µM [23]: 3.66%
- inhibition of growth at 10 µM [24]: 2.48%
- inhibition of growth at 10 µM [25]: 5.34%
- inhibition of growth at 10 µM [26]: 2.27%
- growth inhibition (GI) [27]: inactive
- inhibition of growth at 10 µM [28]: 15.7%
- growth inhibition (GI) [29]: inactive
- growth inhibition (GI) [30]: inactive
- inhibition of growth at 10 µM [31]: 17.2%
- inhibition of growth at 10 µM [32]: 30.7%
- inhibition of growth at 10 µM [33]: 24.9%
- inhibition of growth at 10 µM [34]: 26.5%
- inhibition of growth at 10 µM [35]: 8.36%
- inhibition of growth at 10 µM [36]: 26.5%
- inhibition of growth at 10 µM [37]: 9.98%
- inhibition of growth at 10 µM [38]: 16.6%
- inhibition of growth at 10 µM [39]: 1.51%
- inhibition of growth at 10 µM [40]: 2.32%
- inhibition of growth at 10 µM [41]: 3.75%
- inhibition of growth at 10 µM [42]: 29.2%
- growth inhibition (GI) [43]: inactive
- growth inhibition (GI) [44]: inactive
- inhibition of growth at 10 µM [45]: 21.3%
- growth inhibition (GI) [46]: inactive
- inhibition of growth at 10 µM [47]: 34.7%
- inhibition of growth at 10 µM [48]: 30.1%
- growth inhibition (GI) [49]: inactive
- growth inhibition (GI) [50]: inactive
- inhibition of growth at 10 µM [51]: 20.5%
- inhibition of growth at 10 µM [52]: 3.6%
- inhibition of growth at 10 µM [53]: 28.9%
- inhibition of growth at 10 µM [54]: 4.31%
- inhibition of growth at 10 µM [55]: 0.58%
